From publication PMC8286840, “Identifying SARS-CoV-2 antiviral compounds by screening for small molecule inhibitors of Nsp3 papain-like protease” (Biochemical Journal, 2021) come the findings set out here.

Assay [1] has as its target T1, SARS-CoV-2 PLpro (nsp3 1564–1878) (Severe acute respiratory syndrome coronavirus 2, UniProt P0DTD1). Nature of the assay: biochemical. Further details: FRET-quenched peptide (Pro3) cleavage by PLpro, 10 min pre-incubation, slope over 20 min, normalised to no-compound control. The note with it: low concentration screen, read-out: % of control remaining.
The target in assay [2] is T1, SARS-CoV-2 PLpro (nsp3 1564–1878). Nature of the assay: biochemical. Also on record: FRET-quenched peptide (Pro3) cleavage by PLpro, 10 min pre-incubation, slope over 20 min, normalised to no-compound control. The conditions noted are these: high concentration screen, read-out: % of control remaining.

Where a name gives a salt, the structure may show the parent alone. Read-outs that look alike come from different tables or passages of the source.

As to `CCc1cccc(N(C)C(=N)Nc2cccc3ccccc23)c1` [CNS-1102], the remaining activity at 1.25 µM in assay [1] (Well no.=366) came out at 99.2%. In assay [2] (Well no.=366), the remaining activity at 3.75 µM came to 100%.

Take `CN1CCN(CCCCN2C(=O)CN(/N=C/c3ccc(-c4ccc(Cl)cc4)o3)C2=O)CC1` [1-({(E)-[5-(4-chlorophenyl)-2-furyl]methylidene}amino)-3-[4-(4-methyl-1-piperazinyl)butyl]-2,4-imidazolidinedione dihydrochloride]: in assay [1] (Well no.=5603), the remaining activity at 1.25 µM is 97.6%. Besides, in assay [2] (Well no.=5603), the remaining activity at 3.75 µM was determined as 101%.

As to `C[C@@H]1O[C@@H](O[C@H]2[C@H](Oc3cc(O)c4c(=O)cc(-c5ccc(O)cc5)oc4c3)O[C@H](CO)[C@@H](O)[C@@H]2O)[C@H](O)[C@H](O)[C@H]1O` [Rhoifolin], in assay [1] (Well no.=3733), the remaining activity at 1.25 µM was determined as 95.5%. In assay [2] (Well no.=3733), the remaining activity at 3.75 µM stood at 98.5%.

For `CCN(CC)CCS(=O)(=O)[C@@H]1CCN2C(=O)c3coc(n3)CC(=O)C[C@H](O)/C=C(C)/C=C/CNC(=O)/C=C/[C@@H](C)[C@@H](C(C)C)OC(=O)[C@@H]12` [Dalfopristin], the remaining activity at 1.25 µM in assay [1] (Well no.=7876) is 95%. In assay [2] (Well no.=7876), the remaining activity at 3.75 µM was determined as 93.8%.

For the compound `CC(C)(C)[C@]1(O)CCN2C[C@H]3c4ccccc4CCc4cccc(c43)[C@@H]2C1` [(+)-Butaclamol hydrochloride], the remaining activity at 1.25 µM in assay [1] (Well no.=732) was 98.3%. In assay [2] (Well no.=732), the remaining activity at 3.75 µM is 98.3%.

As for `CNC[C@H](O)[C@@H](O)[C@H](O)[C@H](O)CO` [Meglumine], the remaining activity at 1.25 µM in assay [1] (Well no.=1565) is 104%. Further, the remaining activity at 3.75 µM in assay [2] (Well no.=1565) worked out at 104%.

As to `NC(=O)Nc1cc(-c2ccccc2)sc1C(N)=O` [IKK-2 Inhibitor XI], the remaining activity at 1.25 µM in assay [1] (Well no.=2838) is 99.2%. The remaining activity at 3.75 µM in assay [2] (Well no.=2838) amounted to 103%.

For `O=NN(CCCl)C(=O)NCCCl` [Carmustine], in assay [1] (Well no.=137), the remaining activity at 1.25 µM stood at 102%. For the same compound, the remaining activity at 3.75 µM in assay [2] (Well no.=137) amounted to 102%.

As to `CN[C@@H](C)C(=O)N[C@H](C(=O)N1CCC[C@H]1C(=O)Nc1snnc1-c1ccccc1)C1CCCCC1` [GDC-0152], the remaining activity at 1.25 µM in assay [1] (Well no.=6692) stood at 103%. Further, in assay [2] (Well no.=6692), the remaining activity at 3.75 µM amounted to 95.6%.

As to `CCOC(=O)[C@H](CCc1ccccc1)N[C@H]1CCc2ccccc2N(CC(=O)O)C1=O` [Benazepril (hydrochloride)], the remaining activity at 1.25 µM in assay [1] (Well no.=7786) was found to be 104%. For the same compound, the remaining activity at 3.75 µM in assay [2] (Well no.=7786) turned out to be 104%.

As for `NN=C(N)N` [Aminoguanidine hemisulfate], the remaining activity at 1.25 µM in assay [1] (Well no.=213) was determined as 95.8%. Besides, the remaining activity at 3.75 µM in assay [2] (Well no.=213) was determined as 96.8%.

Consider `OCCOCCN1CCN(C(c2ccccc2)c2ccccc2)CC1` [Decloxizine (dihydrochloride)], for which the remaining activity at 1.25 µM in assay [1] (Well no.=8189) was 102%. Moreover, the remaining activity at 3.75 µM in assay [2] (Well no.=8189) was determined as 103%.

For `CN(C)CCC(c1ccc(Br)cc1)c1ccccn1` (single isomer, unassigned; (+)) [(+)-Brompheniramine maleate], the remaining activity at 1.25 µM in assay [1] (Well no.=365) was 98.9%. In addition, the remaining activity at 3.75 µM in assay [2] (Well no.=365) stood at 98.5%.

`O=C(/C=C/c1ccc(O)cc1)c1ccc(O)cc1O` [Isoliquiritigenin]: in assay [1] (Well no.=963), the remaining activity at 1.25 µM came out at 99.7%. In addition, in assay [2] (Well no.=963), the remaining activity at 3.75 µM is 101%.

With `N[C@H](C(=O)O)[C@H](O)C(=O)O` (racemic) [DL-threo-beta-hydroxyaspartic acid], the remaining activity at 1.25 µM in assay [1] (Well no.=418) was determined as 96.9%. In assay [2] (Well no.=418), the remaining activity at 3.75 µM is 95.6%.

Turning to `C[C@@H]1CCC[C@H](C)N1NC(=O)c1ccc(Cl)c(S(N)(=O)=O)c1` [Clopamide], the remaining activity at 1.25 µM in assay [1] (Well no.=1773) is 96%. Also, in assay [2] (Well no.=1773), the remaining activity at 3.75 µM turned out to be 93.8%.

Regarding `C[C@@]1(c2cc(-c3cncnc3)c(F)cc2F)CCSC(N)=N1` [LY2811376], the remaining activity at 1.25 µM in assay [1] (Well no.=4949) was 101%. For the same compound, the remaining activity at 3.75 µM in assay [2] (Well no.=4949) amounted to 103%.

`C/C(O)=C(\C#N)C(=O)Nc1cc(Br)ccc1Br` [LFM-A13]: the remaining activity at 1.25 µM in assay [1] (Well no.=789) was 99.1%. Moreover, the remaining activity at 3.75 µM in assay [2] (Well no.=789) was 97.7%.

`CNS(=O)(=O)Cc1ccc2[nH]cc(CCN(C)C)c2c1` [Sumatriptan (succinate)]: the remaining activity at 1.25 µM in assay [1] (Well no.=6379) amounted to 104%. Besides, the remaining activity at 3.75 µM in assay [2] (Well no.=6379) came to 91%.

Consider `COc1cc2c(cc1OC)CC(=O)N(CCCN(C)C[C@H]1Cc3cc(OC)c(OC)cc31)CC2` [Ivabradine (hydrochloride)], for which the remaining activity at 1.25 µM in assay [1] (Well no.=7625) was found to be 99.3%. The remaining activity at 3.75 µM in assay [2] (Well no.=7625) worked out at 94.7%.

Regarding `Cc1ccc(NC(=O)C2(c3ccc4c(c3)OC(F)(F)O4)CC2)nc1-c1cccc(C(=O)O)c1` [VX-809], the remaining activity at 1.25 µM in assay [1] (Well no.=4961) turned out to be 95.6%. In addition, the remaining activity at 3.75 µM in assay [2] (Well no.=4961) came out at 95%.

Regarding `COc1ccc(CN(CCN(C)C)c2ccccn2)cc1` [Pyrilamine maleate], in assay [1] (Well no.=814), the remaining activity at 1.25 µM came out at 101%. Besides, the remaining activity at 3.75 µM in assay [2] (Well no.=814) is 104%.

In the case of `NC(=O)C[C@H](N)C(=O)O` [L-Asparagine], in assay [1] (Well no.=7741), the remaining activity at 1.25 µM worked out at 106%. Further, the remaining activity at 3.75 µM in assay [2] (Well no.=7741) came out at 108%.

Take `Cn1cc(/C=C2\C(=O)Nc3ccc(S(N)(=O)=O)cc32)c2ccccc21` [Syk Inhibitor]: the remaining activity at 1.25 µM in assay [1] (Well no.=2595) came to 96.8%. The remaining activity at 3.75 µM in assay [2] (Well no.=2595) is 96.7%.

For `C#CCn1c(=O)c2c(ncn2C)n(C)c1=O` [3,7-Dimethyl-I-propargylxanthine], in assay [1] (Well no.=498), the remaining activity at 1.25 µM was determined as 99.2%. The remaining activity at 3.75 µM in assay [2] (Well no.=498) is 97.4%.

For the compound `COc1cccc2c1C(=O)c1c(O)c3c(c(O)c1C2=O)C[C@@](O)(C(C)=O)C[C@@H]3O[C@H]1C[C@H](N)[C@H](O)[C@H](C)O1` [Daunorubicin hydrochloride], the remaining activity at 1.25 µM in assay [1] (Well no.=728) was determined as 94%. Moreover, the remaining activity at 3.75 µM in assay [2] (Well no.=728) came to 94.8%.

On to `COc1ccc(-c2cccc(C(=O)N(C)C)c2)cc1S(=O)(=O)Nc1cccc(NCCNC(=O)c2cccc(C)c2)c1` [Orexin 2 Receptor Agonist], for which the remaining activity at 1.25 µM in assay [1] (Well no.=6951) worked out at 105%. Moreover, the remaining activity at 3.75 µM in assay [2] (Well no.=6951) was 103%.

As to `Cc1cc2c(C(C)C)c(O)c(O)c(C=O)c2c(O)c1-c1c(C)cc2c(C(C)C)c(O)c(O)c(C=O)c2c1O` [Gossypol], the remaining activity at 1.25 µM in assay [1] (Well no.=3325) was found to be 98.8%; in assay [1] (Well no.=3953), 102%. Moreover, the remaining activity at 3.75 µM was found to be 99.3% in assay [2] (Well no.=3325) and 98.4% in assay [2] (Well no.=3953).

For `Nc1nccc2c1ncn2[C@@H]1O[C@H](CO)[C@@H](O)[C@H]1O` [3-Deazaadenosine (hydrochloride)], in assay [1] (Well no.=7808), the remaining activity at 1.25 µM was 96.7%. For the same compound, in assay [2] (Well no.=7808), the remaining activity at 3.75 µM was determined as 92.6%.

Take `CC(C)S(=O)(=O)c1ccc2nccc(Nc3ccc4scnc4c3)c2c1` [GSK-872]: the remaining activity at 1.25 µM in assay [1] (Well no.=6584) is 96.3%. Further, the remaining activity at 3.75 µM in assay [2] (Well no.=6584) was 108%.

Consider `CC(C)[C@@]1(O)[C@@H](OC(=O)c2ccc[nH]2)[C@@]2(O)[C@@]3(C)C[C@]4(O)O[C@@]5([C@H](O)[C@@H](C)CC[C@]35O)[C@@]2(O)[C@@]14C` [Ryanodine], for which the remaining activity at 1.25 µM in assay [1] (Well no.=3583) came out at 104%. In assay [2] (Well no.=3583), the remaining activity at 3.75 µM amounted to 105%.
